# Experimental data reported in patent US10017504B2, “Piperidine isoxazole and isothiazole orexin receptor antagonists” (MERCK SHARP & DOHME CORP., priority 2014, dated 2018).
# Biological target: human orexin-2 receptor (Homo sapiens (Human), UniProt O43614)
# Assay: FLIPR Ca2+ Flux Assay, orexin-2 receptor
# Type: cell-based
# Conditions: CHO cells expressing the human orexin-2 receptor; agonist 70 pM Ala-6,12 human orexin-A; read-out: hOX2 FLIPR IC50
# Procedure: In a typical experiment the OX1 and OX2 receptor antagonistic activity of the compounds of the present invention was determined in accordance with the following experimental method. For intracellular calcium measurements, Chinese hamster ovary (CHO) cells expressing the rat orexin-1 receptor or the human orexin-2 receptor, are grown in Iscove's modified DMEM containing 2 mM L-glutamine, […], 1% hypoxanthine-thymidine supplement, 100 U/ml penicillin, 100 μg/ml streptomycin and 10% heat-inactivated fetal calf serum (FCS). The cells are seeded at 20,000 cells/well into Becton-Dickinson black 384-well clear bottom sterile plates coated with poly-D-lysine. All reagents are from GIBCO-Invitrogen Corp. The seeded plates are incubated overnight at 37° C. and 5% CO2. Ala-6,12 human orexin-A as the agonist is prepared as a 1 mM stock solution in 1% bovine serum albumin (BSA) and diluted in assay buffer (HBSS containing 20 mM HEPES, 0.1% BSA and 2.5 mM probenecid, pH7.4) for use in the assay at a final concentration of 70 pM. Test compounds are prepared as 10 mM stock solution in DMSO, then diluted in 384-well plates, first in DMSO, then assay buffer. On the day of the assay, cells are washed 3 times with 100 μl assay buffer and then incubated for 60 min (37° C., 5% CO2) in 60 μl assay buffer containing 1 μM Fluo-4AM ester, 0.02% pluronic acid, and 1% BSA. The dye loading solution is then aspirated and cells are washed 3 times with 100 μl assay buffer. 30 μl of that same buffer is left in each well. Within the Fluorescent Imaging Plate Reader (FLIPR, Molecular Devices), test compounds are added to the plate in a volume of 25 μl, incubated for 5 min and finally 25 μl of agonist is added. Fluorescence is measured for each well at 1 second intervals for 5 minutes and the height of each fluorescence peak is compared to the height of the fluorescence peak induced by 70 pM Ala-6,12 orexin-A with buffer in place of antagonist. […] The intrinsic orexin receptor antagonist activity of a compound which may be used in the present invention may be determined by these assays.
# Chain of human orexin-2 receptor (O43614 whole entry): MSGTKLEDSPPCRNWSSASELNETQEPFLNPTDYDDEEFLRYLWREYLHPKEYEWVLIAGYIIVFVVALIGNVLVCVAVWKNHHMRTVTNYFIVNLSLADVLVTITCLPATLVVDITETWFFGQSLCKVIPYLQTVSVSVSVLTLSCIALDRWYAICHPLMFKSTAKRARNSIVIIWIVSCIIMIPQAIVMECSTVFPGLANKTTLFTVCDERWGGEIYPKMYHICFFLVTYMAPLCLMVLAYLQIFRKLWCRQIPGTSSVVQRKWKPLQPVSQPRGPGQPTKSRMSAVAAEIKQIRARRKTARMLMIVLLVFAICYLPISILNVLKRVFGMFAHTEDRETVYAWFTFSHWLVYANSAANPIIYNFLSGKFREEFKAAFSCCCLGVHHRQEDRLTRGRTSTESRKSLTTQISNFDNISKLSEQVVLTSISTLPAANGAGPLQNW
row,SMILES,IC50 [nM]
1,"C[C@@H]1CC[C@@H](c2cc([C@@H](O)C(F)(F)F)no2)CN1C(=O)c1ccccc1-c1ncccn1 [Example 50, (1R)-2,2,2-Trifluoro-1-(5-{(3R,6R)-6-methyl-1-[(2-pyrimidin-2-ylphenyl)carbonyl]piperidin-3-yl}isoxazol-3-yl)ethanol]",110
2,"C[C@@H]1CC[C@@H](c2cc(C(C)(C)O)on2)CN1C(=O)c1ccccc1C1(C#N)CC1 [Example 2, 1-(2-((2R,5R)-5-(5-(2-Hydroxypropan-2-yl)isoxazol-3-yl)-2-methylpiperidine-1-carbonyl)phenyl)cyclopropanecarbonitrile]",104
3,"C[C@@H]1CC[C@@H](c2cc([C@H](O)C(F)(F)F)no2)CN1C(=O)c1ccccc1-c1ncccn1 [Example 51, (1S)-2,2,2-trifluoro-1-(5-{(3R,6R)-6-methyl-1-[(2-pyrimidin-2-ylphenyl)carbonyl]piperidin-3-yl}isoxazol-3-yl)ethanol]",146
4,"C[C@@H]1CC[C@@H](c2cc([C@H](O)C(F)(F)F)no2)CN1C(=O)c1ccsc1-c1ncccn1 [Example 48, (1S)-2,2,2-Trifluoro-1-(5-{(3R,6R)-6-methyl-1-[(2-pyrimidin-2-ylthiophen-3-yl)carbonyl]piperidin-3-yl}isoxazol-3-yl)ethanol]",113
5,"C[C@@H]1CC[C@@H](c2cc(C(C)(O)C3CC3)no2)CN1C(=O)c1ccccc1-n1nccn1 (single isomer, unassigned) [Example 53]",34.3
6,"C[C@@H]1CC[C@@H](c2cc(C(C)(C)O)no2)CN1C(=O)c1ncccc1-c1ccccc1 [Example 34, 2-(5-{(3R,6R)-6-Methyl-1-[(3-phenylpyridin-2-yl)carbonyl]piperidin-3-yl}isoxazol-3-yl)propan-2-ol]",264
7,"C[C@@H]1CC[C@@H](c2cc(C(C)(C)O)no2)CN1C(=O)c1nccnc1-n1cccn1 [Example 25, 2-{5-[(3R,6R)-6-methyl-1-{[3-(1H-pyrazol-1-yl)pyrazin-2-yl]carbonyl}piperidin-3-yl]isoxazol-3-yl}propan-2-ol]",799
8,"C[C@@H]1CC[C@@H](c2cc(C(C)(C)O)sn2)CN1C(=O)c1ccccc1C1(C#N)CC1 [Example 62, 1-[2-({(2R,5R)-5-[5-(1-Hydroxy-1-methylethyl)isothiazol-3-yl]-2-methylpiperidin-1-yl}carbonyl)phenyl]cyclopropanecarbonitrile]",19.1
9,"C[C@@H]1CC[C@@H](c2cc(C(C)(C)O)no2)CN1C(=O)c1ccccc1-c1ncccn1 [Example 22, 2-(5-{(3R,6R)-6-Methyl-1-[(2-pyrimidin-2-ylphenyl)carbonyl]piperidin-3-yl}isoxazol-3-yl)propan-2-ol]",51.4
10,"C[C@@H]1CC[C@@H](c2cc([C@@H](O)C(F)(F)F)no2)CN1C(=O)c1ccsc1-c1ncccn1 [Example 49, (1R)-2,2,2-Trifluoro-1-(5-{(3R,6R)-6-methyl-1-[(2-pyrimidin-2-ylthiophen-3-yl)carbonyl]piperidin-3-yl}isoxazol-3-yl)ethanol]",112
11,"C[C@@H]1CC[C@@H](c2cc([C@H](O)C(F)(F)F)no2)CN1C(=O)c1ccccc1-n1ncnn1 [Example 47, (1S)-2,2,2-Trifluoro-1-{5-[(3R,6R)-6-methyl-1-{[2-(2H-tetrazol-2-yl)phenyl]carbonyl}piperidin-3-yl]isoxazol-3-yl}ethanol]",328
12,"C[C@@H]1CC[C@@H](c2cc(C(C)(C)O)sn2)CN1C(=O)c1ccccc1-n1ncnn1 [Example 60, 2-{3-[(3R,6R)-6-Methyl-1-{[2-(2H-tetrazol-2-yl)phenyl]carbonyl}piperidin-3-yl]isothiazol-5-yl}propan-2-ol]",63.8
13,"CC[C@](C)(O)c1cc([C@@H]2CC[C@@H](C)N(C(=O)c3ccccc3-n3nccn3)C2)no1 [Example 12, (2-(2H-1,2,3-triazol-2-yl)phenyl)((2R,5R)-5-(5-((S)-2-hydroxybutan-2-yl)isoxazol-3-yl)-2-methylpiperidin-1-yl)methanone]",15
